Results on 5 molecules are retold here after patent US12064405B2, “Immunosuppressant comprising TSAHC or a pharmaceutically acceptable salts thereof as an active ingredient” (Seoul National University R&DB Foundation, priority 2020, dated 2024).

Data set [1] relates to cells expressing TM4SF5. In words: Activation of glycolytic function (acidification of extracellular solution, Seahorse). It counts as cell-based. As to the method: The cells expressing TM4SF5 were treated with vehicle, a negative control compound (4′-methoxy-4-dihydroxychalcone) or TSAHC. Then, the degree of activation of glycolytic function was measured by measuring the acidification of the extracellular solution due to glycolysis while additionally adding glucose at various concentrations using Seahorse equipment.

For data set [2], the system named is cell lines expressing TM4SF5. In words: qRT-PCR of M1-type macrophage chemokines/cytokines CCL2, TNF-α, IL-6, IL-1β. In kind it is cell-based. The conditions noted are these: cell line expressing TM4SF5, LPS and IFN-γ. As to the method:
Cell lines not expressing TM4SF5 (EV) or cell lines expressing thereof (TM4SF5) were treated (+) or not treated with LPS and IFN-γ, treated (+) or not treated with 2-DG (2-Deoxy-D-glucose) as a drug for inhibiting glycolysis at a given concentration, and additionally treated (+) or not treated with TSAHC (−). Then, the mRNA expression levels of CCL2, TNF-α, IL-6, and IL-1β, the chemokines/cytokines indicating the activation of M1-type macrophages, were confirmed by qRT-PCR.
Background: Real-time PCR tracks product formation cycle by cycle.

The subject of data set [3] is M1 and M2 type macrophages differentiated from THP-1 cells. In words: qRT-PCR of M1 or M2 type macrophage markers in macrophages differentiated from THP-1 cells. In kind it is cell-based, human. The conditions noted are these: 100 nM for 24 hours; for mRNA levels of M1 type macrophage markers (TNFα, IL1β, IL6) compared to the control group: M1 type macrophages, FIG. 12A. The method, then:
M1 and M2 type macrophages (MΦ) differentiated from THP-1 cells were treated with CCL20 or CXCL10 at a concentration of 100 nM for 24 hours, and then the mRNA expression levels of the markers indicating the activity as M1 or M2 type macrophages were confirmed by qRT-PCR. For M1 type macrophages, the mRNA expression levels of TNFα, IL1β and IL6 were measured, and for M2 type macrophages, the mRNA expression levels of CD206 and FN1 were measured.

Data set [4] concerns M0 THP-1 cells expressing TM4SF5. In words: Glycolytic Proton Efflux Rate (GlycoPER) in M0 THP-1 cells treated with CCL20 or CXCL10. In kind it is cell-based, human. The conditions noted are these: 300 ng/ml for 24 hours, FIG. 9. As to the method:
THP-1 cells infected with a lentivirus with an empty vector not expressing TM4SF5 or a lentivirus expressing TM4SF5 were treated with 100 nM phorbol-12-myristate-13-acetate (PMA) for 24 hours to differentiate into M0 cells (experimental condition to confirm the not repetitive effects of cytokines/chemokines in the early stage by representing the case before differentiation into M1 type), and then, 300 ng/ml of CCL20 or CXCL10 was treated for 24 hours, and basal and compensatory Glycolytic Proton Efflux Rate (GlycoPER) were measured using a Seahorse XFp device.

The subject of data set [5] is Ccl20. In words: CCl4-induced liver damage, inflammation and fibrosis with suppression of Ccl20 expression by siRNA. In kind it is in vivo, mouse. As to the method:
12-week-old normal WT or Tm4sf5^−/− KO mice (5 per group) were intraperitoneally injected with CCl4 (TRC, Canada, C176905, 10 mg/kg/40% olive oil) twice a week for 4 weeks. Ccl20 siRNA [sense 5′-GGAGGAAAUGAUCACAGCUtt-3′ (SEQ. ID. NO: 101), antisense 5′-AGCUGUGAUCAUUUCCUCCtt-3 (SEQ. ID. NO: 102) was purchased from Ambion (Austin Texas, USA) and diluted to an appropriate concentration in PBS. Ccl20 siRNA (1.66 mg/kg) or vehicle was intravenously injected into the mice twice a week. After 4 weeks, liver and blood samples of the animals were obtained.
As shown in the scheme of FIG. 5, 12-week-old normal C57BL/6 mice were intraperitoneally injected with CCl4 (40% in olive oil) at a concentration of 10 mg/kg body weight twice a week for 26 days. At the same time, siRNA against CCL20 (Amibon, Austin Texas, USA, Assay ID 72932, sense 5′-GGAGGAAAUGAUCACAGCUtt-3′, antisense 5′-AGCUGUGAUCAUUUCCUCCtt-3′) dissolved in PBS at a concentration of 1.66 mg/kg was intravenously injected for 26 days before the CCl4 injection. After 26 days of the injection, the mice were sacrificed, and the liver tissue was obtained. Then, the disease state of the liver was investigated by performing immunohistochemistry (IHC), Masson's trichrome staining and qRT-PCR.
Specifically, for H&E staining, the tissue was placed in a 60° C. oven for about 20 minutes to separate the tissue from paraffin, and when the paraffin melted, the tissue was immersed in xylene three times for 5 minutes each. The tissue was put into 100%→90%→80%→70% ethanol→distilled water for 3 minutes each in the order, and then immersed in a hematoxylin solution for 5 minutes to react. After sufficiently washing the tissue with tap water, it was reacted with an eosin solution for about 20 minutes, and washed again with tap water. Then, the tissue was immersed in 70%→80%→90%→100% ethanol→xylene for 3 minutes each in the order for dehydration, followed by mounting on a slide.
Paraffin blocks and liver tissue sections for immunohistochemical staining were obtained from Abion Inc. (Seoul, Korea). As antibodies, F4/80 (Cell Signaling Technology), Ccl20, laminin γ2 (Santa Cruz Biotechnology) were used.
For Masson's trichrome staining, the tissue was first separated from paraffin and then reacted in a preheated bouin's solution for 1 hour. After rinsing the tissue with tap water until the solution was completely drained, it was reacted in a hematoxylin solution for 10 minutes, and then rinsed again with tap water. Then, the tissue was reacted in a biebrich scarlet-acid fuchsin solution for 5 minutes, immersed in distilled water, and reacted in a phosphotungstic/phosphomolybdic acid solution for 15 minutes. The tissue was immersed in an Aniline blue solution for 10 minutes and 1% acetic acid for 1 minute for dehydration. The tissue was immersed in xylene, followed by mounting on a slide.

For “4′-methoxy-4-dihydroxychalcone [control compound, reference compound]”, the “glycolysis of the cells not expressing TM4SF5 (EV)” value in data set [1] (EV cell line, FIG. 8B) is “not changed”. For the same molecule, the “glycolytic function of cells expressing TM4SF5” value in data set [1] (various concentrations of glucose added, FIG. 8C) is recorded as “not changed”.
In the case of `O=CC[C@@H](O)[C@H](O)[C@H](O)CO` [2-DG, 2-Deoxy-D-glucose, reference compound], the “CCL2 mRNA expression level” value in data set [2] (FIG. 11A) is on record as “decreased”. Further, the “TNF-α mRNA expression level” value in data set [2] (FIG. 11B) is given as “decreased”. In data set [2] (FIG. 11C), the “IL-6 mRNA expression level” value is given as “decreased”. Further, the “IL-1β mRNA expression level” value in data set [2] (FIG. 11D) is given as “decreased”.
“CCL20: chemokine used to treat THP-1-derived macrophages”: the “mRNA levels of M1 type macrophage markers (TNFα, IL1β, IL6) compared to the control group” value in data set [3] is “decreased”. Further, the “mRNA levels of M2 type macrophage markers (CD206, FN1)” value in data set [3] (M2 type macrophages, CCL20 alone or together with CXCL10, FIG. 12B) was “significantly increased”. Also, the “glycolytic function (basal and compensatory GlycoPER) versus vehicle-treated control group” value in data set [4] was “higher”.
Turning to “CXCL10: chemokine used to treat THP-1-derived macrophages”, the “mRNA levels of M1 type macrophage markers (TNFα, IL1β, IL6) compared to the control group” value in data set [3] is “decreased”. In addition, in data set [4], the “glycolytic function (basal and compensatory GlycoPER) versus vehicle-treated control group” value is “higher”.
With “Ccl20 siRNA: siRNA against CCL20 (Ambion), sense 5′-GGAGGAAAUGAUCACAGCUtt-3′, antisense 5′-AGCUGUGAUCAUUUCCUCCtt-3′ (sense GGAGGAAAUGAUCACAGCUTT; antisense AGCUGUGAUCAUUUCCUCCTT; chemistry not given here)”, the “collagen type 1 α1 chain (Col1α1) mRNA level in liver” value in data set [5] (during CCl4 treatment, FIG. 6A) is “decreased”. For the same molecule, the “Ccl20 mRNA level in liver” value in data set [5] (during CCl4 treatment, FIG. 6B) is on record as “decreased”. In data set [5] (during CCl4 treatment, FIG. 6C), the “F4/80 mRNA level in liver” value is “decreased”. Besides, in data set [5] (during CCl4 treatment, FIG. 6D), the “α-smooth muscle actin (Sma) mRNA level in liver” value is given as “decreased”. Besides, the “effect of CCl4 treatment (liver tissue damage, collagen accumulation, Ccl20 and Cxcl10 accumulation, F4/80 macrophage infiltration, laminin γ2 accumulation)” value in data set [5] (siRNA 1.66 mg/kg intravenously, CCl4 10 mg/kg twice a week, 26 days, FIG. 5) is “significantly inhibited”.
